Reference: PubChem BioAssay (NCI)
Where “and” joins values, the source holds several entries; their conditions need not be identical. Identical values can stand only once.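 1) Cells in 96-well plates. 2) Compound, 48 h, 5 concentrations. 3) Linear interpolation between surrounding doses. 4) Unreached endpoint = highest concentration. GI50 = concentration required for 50% inhibition of growth. TGI: total growth inhibition.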

Experiments:
Assay in all cases: DTP human tumour cell line panel, 48 h
[1] = tested on: BT-549 breast
[2] = tested on: CCRF-CEM leukemia
[3] = tested on: HCT-116 colon
[4] = tested on: K-562 leukemia
[5] = tested on: MALME-3M melanoma
[6] = tested on: NCI-H23 lung
[7] = tested on: RPMI-8226 leukemia
[8] = tested on: SK-MEL-28 melanoma
[9] = tested on: SNB-19 CNS
[10] = tested on: T-47D breast

CC1CCc2c(c(CC3CC(=O)NC(=O)C3)nn2-c2ccccc2)C1 (stereo unspecified)
TGI [1]: > 100 µM | TGI [2]: > 100 µM | TGI [3]: > 100 µM | TGI [4]: > 100 µM | TGI [5]: > 100 µM | TGI [6]: > 100 µM | TGI [7]: > 100 µM | TGI [8]: > 100 µM | TGI [9]: > 100 µM | TGI [10]: > 100 µM

O=C(NN1C(=O)CSC12CCCC2)C(O)c1ccccc1 (stereo unspecified)
GI50 [1]: > 100 µM | TGI [1]: > 100 µM | GI50 [2]: > 100 µM | TGI [2]: > 100 µM | GI50 [3]: > 100 µM | TGI [3]: > 100 µM | GI50 [4]: > 100 µM | TGI [4]: > 100 µM | GI50 [5]: > 100 µM | TGI [5]: > 100 µM | GI50 [6]: > 100 µM | TGI [6]: > 100 µM | GI50 [7]: > 100 µM | TGI [7]: > 100 µM | GI50 [8]: > 100 µM | TGI [8]: > 100 µM | GI50 [9]: > 100 µM | TGI [9]: > 100 µM | GI50 [10]: > 100 µM | TGI [10]: > 100 µM

COc1cc(/C=C\c2cc(/C=C\c3ccc(O)c(OC)c3)n(C(=O)CNc3ccc(Cl)cc3)n2)ccc1O
GI50 [1]: 3 µM | TGI [1]: 47 µM | GI50 [2]: 1.49 µM | TGI [2]: 5.45 µM | GI50 [3]: 2.9 µM | TGI [3]: 13.5 µM | GI50 [4]: 2.59 µM | TGI [4]: 12.3 µM | GI50 [5]: 1.6 µM | TGI [5]: 12 µM | GI50 [6]: 3.35 µM | TGI [6]: 15.8 µM | GI50 [7]: 1.88 µM | TGI [7]: 6.36 µM | GI50 [8]: 2.3 µM | TGI [8]: 11.6 µM | GI50 [9]: 3.18 µM | TGI [9]: 14.1 µM | GI50 [10]: 2.79 µM | TGI [10]: 16 µM

CC(=O)O[C@H]1C(=O)[C@@]2(C)[C@H]([C@H](OC(=O)c3ccccc3)[C@@]3(O)C[C@H](O)C(C)=C1C3(C)C)[C@]1(OC(C)=O)CO[C@@H]1C[C@@H]2O
TGI [1]: > 100 µM | TGI [2]: > 100 µM | TGI [3]: > 100 µM | TGI [4]: > 100 µM | TGI [5]: > 100 µM | TGI [6]: > 100 µM | TGI [7]: > 100 µM | TGI [8]: > 100 µM | TGI [9]: > 100 µM | TGI [10]: > 100 µM

CC(C)(C)c1ccc(O)c(CN(Cc2cc(C(C)(C)C)ccc2O)C2CCCCC2)c1
TGI [1]: 46.5 µM | TGI [2]: 99.9 µM | TGI [3]: 30.6 µM | TGI [4]: 27.9 µM | TGI [5]: 30.8 µM | TGI [6]: 48.7 µM | TGI [7]: 25.1 µM | TGI [8]: 27.2 µM | TGI [9]: 41 µM | TGI [10]: 45 µM

CC(C)(C)NC/C(=C\c1ccccc1)C(=O)c1ccccc1
GI50 [1]: 2.03 µM | TGI [1]: 4.39 µM | GI50 [2]: 0.936 µM | TGI [2]: 51.7 µM | GI50 [3]: 1.18 µM | TGI [3]: 2.58 µM | GI50 [4]: 2.24 µM | TGI [4]: 12.4 µM | GI50 [5]: 2.04 µM | TGI [5]: 4.88 µM | GI50 [6]: 1.77 µM | TGI [6]: 5.02 µM | GI50 [7]: 2.14 µM | TGI [7]: 7.31 µM | GI50 [8]: 1.9 µM | TGI [8]: 3.75 µM | GI50 [9]: 4.27 µM | TGI [9]: 18.4 µM | GI50 [10]: 2.19 µM | TGI [10]: 8.98 µM

C=C1NC(=O)C(CC(C(=O)C(=O)Nc2c(C)cccc2C(C)(C)C)C(=O)c2ccc3ccccc3c2)C(=O)N1 (stereo unspecified)
TGI [1]: > 100 µM | TGI [2]: > 100 µM | TGI [3]: > 100 µM | TGI [4]: > 100 µM | TGI [6]: > 100 µM | TGI [7]: > 100 µM | TGI [8]: > 100 µM | TGI [9]: > 100 µM | TGI [10]: > 100 µM

COc1ccc(/C=C\c2cc(OC)c(OC)c(OC)c2)c(O)c1O
TGI [1]: 32.3 µM | GI50 [2]: 0.274 µM | TGI [2]: 30.8 µM and 11.4 µM | GI50 [3]: 0.136 µM and 1.33 µM | TGI [3]: 14.3 µM and 24 µM | GI50 [4]: 0.333 µM | TGI [4]: 13.2 µM and 37.1 µM | TGI [5]: 27.1 µM and 129 µM | GI50 [6]: 0.0598 µM and 0.0848 µM | GI50 [7]: 0.0635 µM | TGI [7]: 20.9 µM and 9.14 µM | GI50 [8]: 0.655 µM | TGI [8]: 49.6 µM and 60.2 µM | GI50 [9]: 0.0517 µM and 0.05 µM | TGI [9]: 85.3 µM | TGI [10]: > 79.7 µM

COc1cc(-c2ccc(NC(=O)NC3CC3)c(OC)c2)ccc1NC(=O)NC1CC1
GI50 [1]: 2.67 µM | TGI [1]: 27.2 µM | GI50 [2]: 4.34 µM | TGI [2]: > 100 µM | GI50 [3]: 3.22 µM | TGI [3]: > 100 µM | GI50 [4]: 2.45 µM | TGI [4]: > 100 µM | GI50 [5]: 4.99 µM | TGI [5]: > 100 µM | GI50 [6]: > 68.5 µM | TGI [6]: > 100 µM | GI50 [7]: 2.47 µM | TGI [7]: > 24.7 µM | GI50 [8]: > 29.3 µM | TGI [8]: > 100 µM | GI50 [9]: 8.87 µM | TGI [9]: > 100 µM | GI50 [10]: > 100 µM | TGI [10]: > 100 µM

COC(=O)c1ccc2c(c1)c1c(C)c3ccncc3c(C)c1n2C
GI50 [1]: 0.925 µM | TGI [1]: 36.2 µM | GI50 [2]: 0.518 µM | TGI [2]: > 100 µM | GI50 [3]: 0.0495 µM | TGI [3]: > 100 µM | GI50 [4]: 0.2 µM | TGI [4]: > 100 µM | GI50 [5]: 0.201 µM | TGI [5]: 11.2 µM | GI50 [6]: 0.304 µM | TGI [6]: 16.1 µM | GI50 [7]: 0.259 µM | TGI [7]: 25.1 µM | GI50 [8]: 0.441 µM | TGI [8]: 50.1 µM | GI50 [9]: 0.206 µM | TGI [9]: > 100 µM | GI50 [10]: 0.661 µM | TGI [10]: > 100 µM

CCOC(=O)c1csc(NC(=O)COc2cccc(/C=C3\CSc4ccccc4C3=O)c2)n1
GI50 [1]: 2.29 µM | TGI [1]: 6.22 µM | GI50 [2]: 0.472 µM | GI50 [3]: 1.63 µM | TGI [3]: 3.04 µM | GI50 [4]: > 100 µM | TGI [4]: > 100 µM | GI50 [5]: 0.296 µM | TGI [5]: 1.22 µM | GI50 [6]: 0.105 µM | TGI [6]: 0.57 µM | GI50 [7]: > 100 µM | TGI [7]: > 100 µM | GI50 [8]: 2.51 µM | TGI [8]: 6.18 µM | GI50 [9]: 9.19 µM | TGI [9]: 22.7 µM | GI50 [10]: 6.79 µM | TGI [10]: 26.7 µM

COc1ccc(CNc2cnc3cc(N)cc(N)c3n2)cc1
GI50 [1]: 17.8 µM | TGI [1]: 37.5 µM | GI50 [2]: 24.1 µM | TGI [2]: > 100 µM | GI50 [3]: 19.4 µM | TGI [3]: 40.8 µM | GI50 [4]: 10.7 µM | TGI [4]: 29.3 µM | GI50 [6]: 15.1 µM | TGI [6]: 29.1 µM | GI50 [7]: 23 µM | TGI [7]: 82.3 µM | GI50 [8]: 58 µM | TGI [8]: > 100 µM | GI50 [9]: 52.3 µM | TGI [9]: > 100 µM | GI50 [10]: 73.8 µM | TGI [10]: > 100 µM

CC(CCCC1SCC2NC(=O)NC21)C(=O)O (stereo unspecified)
TGI [1]: > 100 µM | TGI [3]: > 100 µM | TGI [4]: > 100 µM | TGI [5]: > 100 µM | TGI [6]: > 100 µM | TGI [7]: > 100 µM | TGI [8]: > 100 µM | TGI [9]: > 100 µM | TGI [10]: > 100 µM

CCOc1c(C#N)c2c(N)ncnc2n1C1OC(CO)C(O)C1O (stereo unspecified)
GI50 [1]: 2.58 µM | TGI [1]: 19 µM | GI50 [2]: 3.18 µM | TGI [2]: 24 µM | GI50 [3]: 0.881 µM | TGI [3]: 3.27 µM | GI50 [4]: 1.5 µM | TGI [4]: 16.4 µM | GI50 [5]: 3.62 µM | TGI [5]: 24.2 µM | GI50 [6]: 3.69 µM | TGI [6]: 34.4 µM | GI50 [7]: 2.12 µM | TGI [7]: 9 µM | GI50 [8]: 2.52 µM | TGI [8]: 11.8 µM | GI50 [9]: 9.1 µM | TGI [9]: > 100 µM | GI50 [10]: 1.98 µM | TGI [10]: 20.2 µM
